The record followed here is patent publication US10413583B2, “Synthetic substrates for enzymes that catalyze reactions of modified cysteines and related methods” (The University of Chicago, priority 2016, dated 2019).

The test system of one assay is MDA-MB-231 cells. Briefly: Flow cytometry of DPP-3 in MDA-MB-231 cells. Type of assay: cell-based, human. Particulars: MDA-MF-231 as printed; 1 μM inhibitor; 5 μM DPP-3, 5 min. The protocol:
(§1) Cells were plated on a 10 cm dish with 10 mL of DMEM/High Glucose (10% FBS, 1% P/S, L-Glutamine, Sodium pyruvate) 36-48 hours prior to the day of experiment and maintained at 37° C., 5% CO2 so as to obtain 80-90% confluency. Cells were washed with DPBS and trypsinized with 1 mL 0.05% Trypsin. 5 mL of DMEM/High Glucose (10% FBS, L-Glutamine, Sodium pyruvate) was added and cells were spun down at 1200 rpm for 3 min. Media was discarded and cells were resuspended in 5 mL of Live Cell Imaging Solution and again spun down at 1200 rpm for 3 min. The cells pellets obtained were resuspended in 3-5 mL of Live Cell Imaging Solution and divided into 500 μL aliquots. The aliquots were treated with either 0.2% DMSO carrier or 1 μM of PalmB/ML348 or 1 μM/5 μM of ML349 inhibitor. After 30 min of incubation at room temperature, 1 μL of 2.5 mM DPP-3 in DMSO was added to each aliquot for a final concentration of 5 μM, and the solutions were mixed. After 5 min incubation at room temperature, fluorescence signal in FITC channel was measured for 10000 cells (5000 for HeLa experiments) on a LSR-Fortessa 4-15 HTS (BD digital instrument, 488 nm laser with 530/30 nm filter for FITC; BD, Franklin Lakes, N.J., United States of America). For analyzing DPP2 in HEK293T cells, the aliquots were treated with either 0.2% DMSO carrier or 2 μM of PalmB, 5 or 20 μM of ML348/ML349 and then analyzed by the protocol as mentioned above. Data was analyzed by FlowJo software version 10.0.8. For comparison of A431 starved versus non-starved, parallel 10 cm dishes of A431 cells were plated in 10 mL of DMEM (high glucose, 10% FBS, 1% P/S), and grown for 36 h. The growth media was removed, and replaced by 10 mL of either DMEM (High glucose) with 10% FBS to maintain “growth” conditions, or DMEM (High glucose) without FBS respectively for “starvation” conditions, and incubated for 14 h. After trypsinization, both plates were treated with 5 mL of DMEM (high glucose) for spinning the cells down, and further processing and analysis were performed as described above by flow cytometry.
(In flow cytometry, cells or beads pass a laser one at a time.)

A further assay deals with A431 cells. Briefly: DPP-3 in A431 cells, starvation and EGF stimulation (flow cytometry, microscopy). Type of assay: cell-based, human. The following applies: A431, starved and non-starved, 1 μM inhibitor, 5 μM DPP-3. The protocol: as §1
Parallel 35 mm glass bottom dishes (D35-10-1.5-N; Cellvis, Mountain View, Calif., United States of America) of A431 cells (450,000) were plated in 2 mL of DMEM glutamax (high glucose, 10% FBS, 1% P/S), and grown for 36 h. The growth media was removed, and replaced by 1.5 mL of either DMEM (High glucose) with 10% FBS to maintain “growth” conditions, or DMEM (High glucose) without FBS respectively for “starvation” conditions, and incubated for 24 h. […] For data analysis, the average fluorescence intensity per image in each experimental condition was obtained by selecting ROIs in the brightfield image. For display, the data were normalized to the average fluorescence intensity of the control conditions. […]

A further assay deals with human colon organoids. As to the kind of experiment: Epifluorescent imaging of RDP-2 with human colon organoids. Particulars: 40 μM inhibitor 30 min, 5 μM RDP-2. It counts as cell-based. As to the method:
At least 24 h before imaging experiments, cultured colon organoids were split using a 25G needle and 1 mL syringe, pelleted, and 50-100 organoids per well were re-plated in eight-well chambered slides (20 μL droplets/well; 250 μL organoid growth media; Cellvis, Mountain View, Calif., United States of America) for treatment and imaging. 30 min before the addition of RDP-2, the cell culture media was removed and cells were washed with 300 μL of serum-free FluoroBrite DMEM (Gibco, Gaithersburg, Md., United States of America; High Glucose, Glutamax, no FBS). […] After incubation for 10 min at 37° C. and 5% CO2, the cells were washed with 300 μL Live Cell Imaging Solution and 300 μL of Live Cell Imaging Solution containing DMSO or the appropriate inhibitor was added to the cells immediately before images were obtained on an inverted epi-fluorescence microscope (Olympus IX83; Olympus Corporation, Tokyo, Japan) attached with EMCCD camera (Photometrics EVOLVE™ Delta, Photometrics, Tucson, Ariz., United States of America) with 40× oil objective (N/A 1.3) for RDP-2 (excitation filter 1 430/24 nm, dichroic chroma 89007, emission filter 1 470/24 nm, exposure time 150 ms, EM gain 100, excitation filter 2 480/20 nm, dichroic chroma 49014, emission filter 2 575/40 nm, exposure time 75 ms, EM gain 75), brightfield (exposure time 50 ms, EM gain 30). […]

SMILES strings stand for the structures. “Also recorded” adds a separate entry of the source.

As for `CCCCCCCCCC[C@@H]1C(=O)O[C@H]1CCc1ccc(OC)c(OC)c1` [PalmB, palmostatin B], the “effect of inhibitor on depalmitoylation signal measured by DPP-3” value in the assay with MDA-MB-231 cells is on record as “knocks down the depalmitoylation signal”; in the assay on A431 cells, “knocked down; also recorded: knocks down the depalmitoylation signal”. The “inhibition / decrease of measured S-depalmitoylation, RDP-2” value with human colon organoids is “about 50%”.

For the compound `O=C(CN1CCN(C(=O)c2ccco2)CC1)Nc1cc(C(F)(F)F)ccc1Cl` [ML348], the entries for the “effect of inhibitor on depalmitoylation signal measured by DPP-3” value in the assay on MDA-MB-231 cells, in the assay on A431 cells and in the assay on A431 cells (listed as M348) were “knocks down the depalmitoylation signal”, “knocks down the depalmitoylation signal” and “knocked down”, respectively. For the same compound, in the assay with human colon organoids, the “inhibition / decrease of measured S-depalmitoylation, RDP-2” value is recorded as “about 20%”.
